{"source": "patent US7332468B2", "about": "“8-tetradecenal as fragrance and flavoring substance” (Symrise GmbH & Co. KG, priority 2001, dated 2008)", "key": {"[1]": {"experiment": "Determination of the odor threshold values in water", "protocol": "The odor threshold values in water were determined in the conventional manner for (Z)-8- and (E)-8-tetradecenal and for two comparison substances."}, "[2]": {"experiment": "Odor description by a panel of expert flavoring specialists, ranking scale 0-4", "parameters": "key to Green-herby / Honey-like (beeswax) / Fresh, fizzy / Citrus-like / Fruity / Flowery / Of orange peel / Of pith / Sweet / Fatty / Waxy: 0: absent; 1: weak; 2: moderate; 3: strong; 4: very strong", "details": "odor ranking 0-4, expert panel", "protocol": "The substances (Z)-8- and (E)-8-tetradecenal according to the invention were tested by a panel of expert flavoring specialists in the conventional manner. The experts assessed the relevant odors on the basis of the procedure in the article entitled “Organoleptic properties of aliphatic aldehydes”, Boelens, Mans H.; Van Gemert, Leo J.; Perfum. Flavor. (1987), 12(5), 31-7, 40, 43, which has already been cited, i.e. they quantified the odors of the particular substance on the basis of an assessment scale with rankings of 0-4. The rankings have the following meanings: • 0: absent • 1: weak • 2: moderate • 3: strong • 4: very strong"}, "[3]": {"experiment": "Modification of a conventional orange flavor composition", "details": "based on the total mass of the composition", "from_the_text": "A conventional flavor composition (composition A) was compared with a flavor composition according to the invention (composition B)."}, "[4]": {"details": "Cadwallader et al. 1999; cited from earlier work"}, "[5]": {"details": "Boelens, Van Gemert 1987; cited from earlier work"}}, "data": [{"smiles": "CCCCC/C=C\\CCCCCCC=O", "note": "[8-(Z)-tetradecenal, (Z)-8-tetradecenal]", "values": [{"measurement": "Odor threshold value", "setting": "[1]; in water", "result": 0.009, "unit": "ppb"}, {"measurement": "odor threshold value lower than that of (Z)-7-tetradecenal and (Z)-9-tetradecenal", "setting": "[1]; in water", "result": "approximately 2 orders of magnitude"}, {"measurement": "Chemical", "setting": "[2]", "result": "0-1"}, {"measurement": "Citrus-like", "setting": "[2]", "result": 4}, {"measurement": "Fatty", "setting": "[2]", "result": 1}, {"measurement": "Flowery", "setting": "[2]", "result": 2}, {"measurement": "Fresh, fizzy", "setting": "[2]", "result": 4}, {"measurement": "Fruity", "setting": "[2]", "result": 1}, {"measurement": "Green-herby", "setting": "[2]", "result": 0}, {"measurement": "Honey-like (beeswax)", "setting": "[2]", "result": 2}, {"measurement": "Of orange peel", "setting": "[2]", "result": 4}, {"measurement": "Of pith", "setting": "[2]", "result": 4}, {"measurement": "Sweet", "setting": "[2]", "result": 3}, {"measurement": "Waxy", "setting": "[2]", "result": "1-2"}, {"measurement": "proportion sufficient to make a conventional orange flavor fresher, juicier, more typical and more harmonious", "setting": "[3]", "result": "0.001 % (m/m)"}]}, {"smiles": "CCCCC/C=C/CCC=O", "note": "[(E)-4-decenal]", "values": [{"measurement": "odor description", "setting": "[4]", "result": "citrus peel"}]}, {"smiles": "CCCC/C=C\\CCCCCCCC=O", "note": "[9-(Z)-tetradecenal, (Z)-9-tetradecenal]", "values": [{"measurement": "usable sensory properties compared with (Z)-8-tetradecenal", "setting": "[1]", "result": "do not have any usable sensory properties"}, {"measurement": "Odor threshold value", "setting": "[1]; in water", "result": 1.44, "unit": "ppb"}, {"measurement": "odor threshold compared with that of (Z)-8-tetradecenal", "setting": "[1]; in water", "result": "approximately two orders of magnitude higher"}]}, {"smiles": "CCCCCC/C=C\\CCCCCC=O", "note": "[7-(Z)-tetradecenal, (Z)-7-tetradecenal]", "values": [{"measurement": "usable sensory properties compared with (Z)-8-tetradecenal", "setting": "[1]", "result": "do not have any usable sensory properties"}, {"measurement": "Odor threshold value", "setting": "[1]; in water", "result": 2.60, "unit": "ppb"}, {"measurement": "odor threshold compared with that of (Z)-8-tetradecenal", "setting": "[1]; in water", "result": "approximately two orders of magnitude higher"}]}, {"smiles": "CCCCCCCCCCC/C=C/C=O", "note": "[(E)-2-tetradecenal]", "values": [{"measurement": "odor description", "setting": "[4]", "result": "fatty, waxy, cheesy"}, {"measurement": "citrus aspect", "setting": "[5]", "result": "weak"}, {"measurement": "fatty aspect", "setting": "[5]", "result": "strong"}]}, {"smiles": "CCCCC/C=C/C=O", "note": "[trans-2-octenal]", "values": [{"measurement": "citrus aspect", "setting": "[5]", "result": "noteworthy"}]}, {"smiles": "CCCCC/C=C/CCCCCCC=O", "note": "[8-(E)-tetradecenal, (E)-8-tetradecenal]", "values": [{"measurement": "Odor threshold value", "setting": "[1]; in water", "result": 1.24, "unit": "ppb"}, {"measurement": "Chemical", "setting": "[2]", "result": "2-3"}, {"measurement": "Citrus-like", "setting": "[2]", "result": "1-2"}, {"measurement": "Fatty", "setting": "[2]", "result": 4}, {"measurement": "Flowery", "setting": "[2]", "result": "0-1"}, {"measurement": "Fresh, fizzy", "setting": "[2]", "result": 0}, {"measurement": "Fruity", "setting": "[2]", "result": 0}, {"measurement": "Green-herby", "setting": "[2]", "result": 1}, {"measurement": "Honey-like (beeswax)", "setting": "[2]", "result": 0}, {"measurement": "Of orange peel", "setting": "[2]", "result": 0}, {"measurement": "Of pith", "setting": "[2]", "result": 1}, {"measurement": "Sweet", "setting": "[2]", "result": "1-2"}, {"measurement": "Waxy", "setting": "[2]", "result": 4}]}, {"smiles": "CCCCCCC/C=C/C=O", "note": "[trans-2-decenal]", "values": [{"measurement": "citrus aspect", "setting": "[5]", "result": "noteworthy"}]}, {"smiles": "CCCCCCCC/C=C/C=O", "note": "[trans-2-undecenal]", "values": [{"measurement": "citrus aspect", "setting": "[5]", "result": "noteworthy"}]}]}
